Calls of active or inactive are those of the source. The rule behind the calls is not given here.
Columns and labels:
[1] = test system: Stenotrophomonas; assay: Antimicrobial activity against Stenotrophomonas YC-1 assessed as lethal concentration; type: functional
[2] = test system: Saccharomyces cerevisiae; assay: Antimicrobial activity against Saccharomyces cerevisiae assessed as lethal concentration; type: functional
[3] = test system: Priestia megaterium; assay: Antimicrobial activity against Bacillus megaterium assessed as lethal concentration; type: functional
[4] = test system: Salmonella typhimurium; assay: Antimicrobial activity against Salmonella Typhimurium assessed as lethal concentration; type: functional
[5] = test system: Stenotrophomonas; assay: Antimicrobial activity against Stenotrophomonas LZ-1 assessed as lethal concentration; type: functional
[6] = test system: Klebsiella sp.; assay: Antimicrobial activity against Klebsiella sp. F51-1-2 assessed as lethal concentration; type: functional
[7] = test system: Serratia marcescens; assay: Antimicrobial activity against Serratia marcescens assessed as lethal concentration; type: functional
[8] = test system: Micrococcus luteus; assay: Antimicrobial activity against Micrococcus luteus assessed as lethal concentration; type: functional
[9] = test system: Pseudomonas putida; assay: Antimicrobial activity against Pseudomonas putida assessed as lethal concentration; type: functional
[10] = test system: Pseudomonas aeruginosa; assay: Antimicrobial activity against Pseudomonas aeruginosa assessed as lethal concentration; type: functional
[11] = test system: Agrobacterium tumefaciens; assay: Antimicrobial activity against Agrobacterium tumefaciens assessed as lethal concentration; type: functional
[12] = test system: Bacillus sp.; assay: Antimicrobial activity against Bacillus sp. DM-1 assessed as lethal concentration; type: functional
[13] = test system: Geotrichum candidum; assay: Antifungal activity against Geotrichum candidum assessed as lethal concentration; type: functional
[14] = test system: Shewanella oneidensis; assay: Antimicrobial activity against Shewanella oneidensis assessed as lethal concentration; type: functional
[15] = Cytotoxicity against mouse erythrocyte assessed as hemolysis at 50 uM; type: cell-based; settings: erythrocytes, read-out: Activity
[16] = test system: Bacillus sp.; assay: Induction of membrane disruption in Bacillus sp. DM-1 at 10 uM after 30 mins using propidium iodide; type: functional, organism-based
[17] = Salmonella enterica subsp. enterica serovar Typhimurium

| Substance | Activity [1] | Activity [2] | Activity [3] | Activity [4, 17] | Activity [5] | Activity [6] | Activity [7] | Activity [8] | Activity [9] | Activity [10] | Activity [11] | Activity [12] [µM] | Activity [13] | Activity [14] | hemolysis at 50 µM [15] [%] | Activity [4] [µM] | Activity [16] |
| --- | --- | --- | --- | --- | --- | --- | --- | --- | --- | --- | --- | --- | --- | --- | --- | --- | --- |
| H-IFGAIAGFIKNGW-NH2 | inactive | 83.26 µM | inactive | inactive | inactive | >100 µM | >100 µM | 14.1 µM | inactive | inactive | inactive | 5.36 | inactive | inactive | – | – | – |
| H-IFGAIAGFIKNGW-OH | inactive | inactive | inactive | inactive | inactive | inactive | inactive | inactive | inactive | inactive | inactive | 49.93 | inactive | inactive | – | – | – |
| H-IFGAIAGFIKNIW-NH2 | 76.98 µM | 28.29 µM | 14.1 µM | – | >100 µM | 23.81 µM | 19.25 µM | 5.95 µM | 9.78 µM | 31.55 µM | 20.79 µM | 2.16 | 5.36 µM | 76.98 µM | 24.1 | >100 | – |
| H-IFGAIAGFIKNIW-OH | inactive | inactive | inactive | inactive | inactive | inactive | inactive | inactive | inactive | inactive | inactive | 49.93 | inactive | inactive | – | – | – |
| H-IFGAIAGLLKNIF-NH2 [Meucin-13] | 6.2 µM | 18.3 µM | 0.25 µM | – | – | – | inactive | 2.9 µM | – | inactive | 11.8 µM | 2 | >50 µM | 6.2 µM | 64.7 | >50 | Active |
